This is an account of results in patent publication US20170121344A1 (Siga Technologies, Inc., priority 2009, published 2017).

Where two headings read alike, the source gives them in different places.

By EC50 is commonly meant the concentration needed to bring the measured effect to its halfway point.

For the experiment, the system named is Dengue-2 (Strain New Guinea C). In words: Viral yield assay against Dengue-2 in Vero cells. The format is cell-based, Dengue virus. The settings on record: read-out: Activity (EC50 in μM) DENV-2. In a few lines: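 Infect Vero cells with virus (MOI 0.1), add compound or DMSO, incubate at 37° C, collect progeny at 48 hours post infection, then titrate on Vero cells to obtain EC50.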

Setting [1] is: Dengue virus, DENV2, viral yield assay, Vero cells, MOI 0.1, 48 hours post infection.
[2] abbreviates: Dengue virus, DENV2, Vero, 48 h.

As to `Cc1cc(F)ccc1NC(=O)c1sc2nc(-c3ccc4c(c3)OCO4)ccc2c1N` [Compound 593, 3-amino-6-(1,3-benzodioxol-5-yl)-N-(4-fluoro-2-methyl-phenyl)thieno[2,3-b] pyridine-2-carboxamide], the concentration giving a half-maximal response (EC50) under setting [1] was < 5 µM. In the case of `COc1ccc(Cl)cc1NC(=O)c1sc2nc(-c3ccc4c(c3)OCO4)ccc2c1N` [Compound 594, 3-amio-6-(1,3-benzodioxol-5-yl)-N-(5-chloro-2-methoxy-phenyl)thieno[2,3-b] pyridine-2-carboxamide], the EC50 under setting [1] is < 5 µM.

Regarding `Nc1c(C(=O)Nc2ccc(F)c(Cl)c2)sc2nc(-c3ccc4c(c3)OCO4)ccc12` [Compound 595, 3-amino-6-(1,3-benzodioxol-5-yl)-N-(3-chloro-4-fluoro-phenyl)thieno[2,3-b] pyridine-2-carboxamide], the EC50 under setting [1] was < 5 µM. On to `Nc1c(C(=O)Nc2ccc(Cl)cc2)sc2nc(-c3ccc4c(c3)OCO4)ccc12` [Compound 601, 3-amino-6-(1,3-benzodioxol-5-yl)-N-(4-chlorophenyl)thieno[2,3-b]pyridine-2-carboxamide], for which, under setting [1], the EC50 is < 5 µM. Still for that read-out and setting: next, `Cc1c(Cl)cccc1NC(=O)c1sc2nc(-c3ccc(F)cc3)ccc2c1N` [Compound 604, 3-amino-N-(3-chloro-2-methyl-phenyl)-6-(4-fluorophenyl)thieno[2,3-b]pyridine-2-carboxamide]: < 5 µM; `Nc1c(C(=O)Nc2cc(Cl)ccc2Cl)sc2nc(-c3ccc(F)cc3)ccc12` [Compound 605, 3-amino-N-(2,5-dichlorophenyl)-6-(4-fluorophenyl)thieno[2,3-b]pyridine-2-carboxamide]: < 5 µM. Same read-out and setting: next, `CCOc1ccccc1NC(=O)c1sc2nc(-c3ccc(F)cc3)ccc2c1N` [Compound 606, 3-amino-N-(2-ethoxyphenyl)-6-(4-fluorophenyl)thieno[2,3-b]pyridine-2-carboxamide]: < 5 µM.

Regarding `Cc1ccc(NC(=O)c2sc3nc(-c4ccc(F)cc4)ccc3c2N)cc1C` [Compound 607, 3-amino-N-(3,4-dimethylphenyl)-6-(4-fluorophenyl)thieno[2,3-b]pyridine-2-carboxamide], the EC50 under setting [1] is < 5 µM. Consider `Nc1c(C(=O)Nc2ccc3c(c2)OCO3)sc2nc(-c3ccc(F)cc3)ccc12` [Compound 608, 3-amino-N-(1,3-benzodioxol-5-yl)-6-(4-fluorophenyl)thieno[2,3-b]pyridine-2-carboxamide], for which, under setting [2], the EC50 was < 5 µM. On to `Cc1ccccc1NC(=O)c1sc2nc(-c3ccc(F)cc3)ccc2c1N` [Compound 610, 3-amino-6-(4-fluorophenyl)-N-(o-tolyl) thieno[2,3-b]pyridine-2-carboxamide], for which the concentration for a half-maximal effect (EC50) under setting [1] is < 5 µM. Take `CCOc1cccc(NC(=O)c2sc3nc(-c4ccc(F)cc4)ccc3c2N)c1` [Compound 611, 3-amino-N-(3-ethoxyphenyl)-6-(4-fluorophenyl)thieno[2,3-b]pyridine-2-carboxamide]: under setting [1], the concentration giving a half-maximal response (EC50) is < 5 µM. As for `Nc1c(C(=O)Nc2ccc(F)c(Cl)c2)sc2nc(-c3ccc(F)cc3)ccc12` [Compound 613, 3-amino-N-(3-chloro-4-fluoro-phenyl)-6-(4-fluorophenyl)thieno[2,3-b]pyridine-2-carboxamide], under setting [1], the EC50 was < 5 µM.

As to `Cc1ccc(NC(=O)c2sc3nc(-c4ccc(F)cc4)ccc3c2N)c(C)c1` [Compound 614, 3-amino-N-(2,4-dimethylphenyl)-6-(4-fluorophenyl)thieno[2,3-b]pyridine-2-carboxamide], the EC50 under setting [1] was < 5 µM. Consider `COc1ccc(NC(=O)c2sc3nc(-c4ccc(F)cc4)ccc3c2N)cc1OC` [Compound 619, 3-amino-N-(3,4-dimethoxyphenyl)-6-(4-fluorophenyl)thieno[2,3-b]pyridine-2-carboxamide], for which the concentration for a half-maximal effect (EC50) under setting [2] was < 5 µM. Turning to `Cc1ccc(Cl)cc1NC(=O)c1sc2nc(-c3ccc(F)cc3)ccc2c1N` [Compound 621, 3-amino-N-(5-chloro-2-methyl-phenyl)-6-(4-fluorophenyl)thieno[2,3-b]pyridine-2-carboxamide], the EC50 under setting [1] is < 5 µM. On the same count and under the same terms, next, `Nc1c(C(=O)Nc2cc(Cl)cc(Cl)c2)sc2nc(-c3ccc(F)cc3)ccc12` [Compound 622, 3-amino-N-(3,5-dichlorophenyl)-6-(4-fluorophenyl)thieno[2,3-b]pyridine-2-carboxamide]: < 5 µM; `Cc1ccc(F)cc1NC(=O)c1sc2nc(-c3ccc(F)cc3)ccc2c1N` [Compound 623, 3-amino-N-(5-fluoro-2-methyl-phenyl)-6-(4-fluorophneyl)thieno[2,3-b]pyridine-2-carboxamide]: < 5 µM. Take `COc1ccc(NC(=O)c2sc3nc(-c4ccc(F)cc4)ccc3c2N)c(C)c1` [Compound 624, 3-amio-6-(4-fluorophenyl)-N-(4-methoxy-2-methyl-phenyl)thieno[2,3-b] pyridine-2-carboxamide]: the 50% effective concentration (EC50) under setting [1] is < 5 µM.

Consider `COc1cccc(-c2ccc3c(N)c(C(=O)Nc4cc(C)ccc4C)sc3n2)c1` [Compound 626, 3-amino-N-(2,5-dimethylphenyl)-6-(3-methoxyphenyl)thieno[2,3-b]pyridine-2-carboxamide], for which the concentration giving a half-maximal response (EC50) under setting [1] was < 5 µM. As for `COc1cccc(-c2ccc3c(N)c(C(=O)Nc4ccc(C)cc4Br)sc3n2)c1` [Compound 627, 3-amino-N-(2-bromo-4-methyl-phenyl)-6-(3-methoxyphenyl)thieno[2,3-b] pyridine-2-carboxamide], the EC50 under setting [1] is < 5 µM. Regarding `Nc1c(C(=O)Nc2cc(F)ccc2F)sc2nc(-c3cc(Cl)ccc3Cl)ccc12` [Compound 629, 3-amino-6-(2,5-dichlorophenyl)-N-(2,5-difluorophenyl)thieno[2,3-b]pyridine-2-carboxamide], the EC50 under setting [1] was < 5 µM. As for `Cc1cccc(NC(=O)c2sc3nc(-c4ccc(Cl)cc4)ccc3c2N)c1` [Compound 632, 3-amino-6-(4-chlorophenyl)-N-(m-tolyl)thieno[2,3-b]pyridine-2-carboxamide], the concentration for a half-maximal effect (EC50) under setting [1] was < 5 µM. On to `COc1ccc(-c2ccc3c(N)c(C(=O)Nc4cccc(C)c4)sc3n2)cc1OC` [Compound 633, 3-amino-6-(3,4-dimethoxyphenyl)-N-(m-tolyl)thieno[2,3-b]pyridine-2-carboxamide], for which, under setting [1], the EC50 is < 5 µM.

In the case of `COc1ccc(-c2ccc3c(N)c(C(=O)Nc4ccccc4)sc3n2)cc1OC` [Compound 634, 3-amino-6-(3,4-dimethoxyphenyl)-N-phenyl-thieno[2,3-b]pyridine-2-carboxamide], the EC50 under setting [1] was < 5 µM.

As to `Cc1ccc(-c2ccc3c(N)c(C(=O)Nc4ccccc4C)sc3n2)cc1` [Compound 637, 3-amino-N-(o-tolyl)-6-(p-tolyl)thieno [2,3-b]pyridine-2-carboxamide], under setting [1], the EC50 is < 5 µM. The same measure, in the same setting: to `Cc1ccc(-c2ccc3c(N)c(C(=O)Nc4ccccc4[N+](=O)[O-])sc3n2)cc1` [Compound 639, 3-amino-N-(2-nitrophenyl)-6-(p-tolyl) thieno[2,3-b]pyridine-2-carboxamide] belongs < 5 µM; to `Cc1ccc(-c2ccc3c(N)c(C(=O)Nc4ccc(F)cc4)sc3n2)cc1` [Compound 640, 3-amino-N-(4-fluorophenyl)-6-(p-tolyl) thieno[2,3-b]pyridine-2-carboxamide], < 5 µM. As for `COc1ccc(Cl)cc1NC(=O)c1sc2nc(-c3ccc(C)cc3)ccc2c1N` [Compound 641, 3-amino-N-(5-chloro-2-methoxy-phenyl)-6-(p-tolyl)thieno[2,3-b]pyridine-2-carboxamide], under setting [1], the 50% effective concentration (EC50) is < 5 µM. Same read-out and setting: to `Cc1ccc(-c2ccc3c(N)c(C(=O)Nc4ccccc4)sc3n2)cc1` [Compound 642, 3-amino-N-phenyl-6-(p-tolyl)thieno[2,3-b]pyridine-2-carboxamide] belongs < 5 µM; to `COc1ccccc1NC(=O)c1sc2nc(-c3ccc(C)cc3)ccc2c1N` [Compound 643, 3-amino-N-(2-methoxyphenyl)-6-(p-tolyl)thieno[2,3-b]pyridine-2-carboxamide], < 5 µM; to `Cc1ccc(-c2ccc3c(N)c(C(=O)Nc4cccc(C)c4)sc3n2)cc1` [Compound 644, 3-amino-N-(m-tolyl)-6-(p-tolyl)thieno[2,3-b]pyridine-2-carboxamide], < 5 µM.

Take `CCOc1ccccc1NC(=O)c1sc2nc(-c3ccc(C)cc3)ccc2c1N` [Compound 647, 3-amino-N-(2-ethoxyphenyl)-6-(p-tolyl)thieno[2,3-b]pyridine-2-carboxamide]: the concentration for a half-maximal effect (EC50) under setting [1] was < 5 µM. Consider `Cc1ccc(-c2ccc3c(N)c(C(=O)Nc4ccccc4F)sc3n2)cc1` [Compound 649, 3-amino-N-(2-fluorophenyl)-6-(p-tolyl) thieno[2,3-b]pyridine-2-carboxamide], for which the 50% effective concentration (EC50) under setting [1] was < 5 µM. As to `Nc1c(C(=O)Nc2ccncc2)sc2nc(-c3cccc(C(F)(F)F)c3)ccc12` [Compound 653, 3-amino-N-(4-pyridyl)-6-[3-(trifluoromethyl)phenyl]thieno[2,3-b] pyridine-2-carboxamide], the EC50 under setting [1] was < 5 µM.

With `Nc1c(C(=O)Nc2ccc(Br)cc2)sc2nc(-c3ccc(Cl)cc3Cl)ccc12` [Compound 654, 3-amino-N-(4-bromophenyl)-6-(2,4-dichlorophenyl)thieno[2,3-b]pyridine-2-carboxamide], the EC50 under setting [1] was < 5 µM. With `Nc1c(C(=O)Nc2ccc3c(c2)OCO3)sc2nc(-c3ccc(F)cc3F)ccc12` [Compound 655, 3-amino-N-(1,3-benzodioxol-5-yl)-6-(2,4-difluorophenyl)thieno[2,3-b]pyridine-2-carboxamide], under setting [1], the EC50 was < 5 µM.

Consider “N-(1-adamantyl)-3-amino-6-(2-thienyl) thieno[2,3-b]pyridine-2-carboxamide [Compound 426]”, for which the EC50 (viral yield assay, Vero cells, MOI 0.1, 48 hours post infection) was < 5 µM.
